Measurements reported in patent US10150793B2, “Antagonists of CB1 receptor” (INSERM (Institut National de la Santé et de la Recherche …, priority 2011, dated 2018).

Columns and labels:
[1] = Allopregnanolone and epiallopregnanolone in nucleus accumbens after high dose injection (GC/MS); format: in vivo, Wistar rats; conditions: 50 mg/kg; 30 min after the injections
Description: The capacity of a compound of the invention to be or not to be converted into active pregnenolone downstream derivatives may be evaluated by administering this compound, for example by injecting 50 mg/kg, to a rat, sacrificing the rat 30 min later, measuring the concentration of allopregnanolone and epiallopregnanolone in nucleus accumbens of rat by GC/MS and comparing these concentrations to allopregnanolone and epiallopregnanolone in a rat whose has been injected only a vehicle or pregnenolone.
The concentrations of allopregnanolone and epiallopregnanolone were measured in nucleus accumbens of individual animal by GC/MS 30 min after the injections.

NMDA receptors = test: Whole cell currents induced by NMDA in nucleus accumbens principal neurons; format: cell-based, mouse; conditions: −30 mV
Description: NMDAR-mediated currents: Changes in holding currents induced by NMDA were measured in cells voltage clamped at −30 mV, to relieve NMDAR from the voltage-dependent magnesium block. AMPAR and GABA-A receptors were blocked with DNQX 20 μM and picrotoxine 50 μM, respectably.
To quantify NMDA receptors-mediated currents we used a different strategy. Because of its slow kinetics and voltage dependence, the isolation of NMDAR-mediated mEPSC is not as reliable as for AMPAR-mediated currents. Thus, we decided to record whole cell currents in response exogenously applied NMDA. In NAc PN voltage-clamped at −30 mV, bath perfusion of NMDA 25 μM for 1 minute induced an inward current of similar magnitude in control slices (115±15.5 pA) and in slices pre-treated with pregnenolone (100 nM: 107±9.6 pA; 1 μM: 108.9±12.5 pA; p=0.91) (FIG. 17 B).

[2] = Brain steroid levels after pregnenolone injections; format: in vivo, C57B1/6 mice; conditions: pregnenolone injections between 2 and 8 mg/kg
Description: Data are expressed as mean±SEM (n=7-8 per group). *=P<0.05, ***=P<0.001 compared to vehicle-treated animals (PREG 0 mg/kg).
In this example the inventors studied the effects of the doses of pregnenolone (between 2 and 8 mg/kg) that were able to inhibit the effects of CB1 activation in mice.

CB1 receptor [3] = target: CB1 receptor (Rattus norvegicus, UniProt P20272); test: THC inhibition of AMPAR-mediated EPSC, patch clamp in nucleus accumbens slices; format: cell-based, rats; design: from tissue; host or cells: acute coronal brain slices, nucleus accumbens; conditions: slices pre-treated with Pregnenolone 100 nM
CB1 receptor [4] = target: T1, CB1 receptor (Mus musculus, UniProt P47746); test: Food intake in 24 h-food deprived mice (fasting/refeeding); format: in vivo, C57B1/6 mice; design: tissue Charles River Laboratories (France) (animals); host or cells: living mice, whole animal; conditions: for effect on food intake in 24 h-food deprived mice: food intake over 1 h
CB1 receptor [5] = target: T1, CB1 receptor; test: Intravenous self-administration of the CB1 agonist WIN 55,212-2; format: in vivo, CD1 mice; design: tissue Charles River Laboratories (France) (animals); host or cells: living mice, whole animal
Description: The intravenous self-administration experiments where the animals learned to self-infuse WIN 55, 212-2 (WIN) were conducted in mouse operant chambers (Model ENV-307A-CT, Medical Associates, Georgia, Vt., USA) using procedures previously described (Mendizabal V, et al., Neuropsychopharmacology. 2006, 31:1957-66).
In order to analyse the effects of pregnenolone administration on the positive reinforcing effect of CB1 activation that are related to the ability of THC to induce addiction, the inventors used the intravenous self-administration model performed in accordance to protocols previously described (Soria et al., 2006; Mendizabal et al., 2006). Intravenous self-administration is considered the best behavioural model of addiction. In this model animals learn to produce an operant response, in our case pocking the nose in a hole, in order to obtain an intravenous infusion of the drug. […] In this schedule animals are required to produce an increasing number of responses (ratio) to obtain one drug infusion, the break-point being the last ratio completed and is considered a reliable measure of the motivation for the drug. On PR session the response requirement to earn an injection escalated according to the following series: 1-2-3-5-12-18-27-40-60-90-135-200-300-450-675-1000.

CB1 receptor [6] = target: T1, CB1 receptor; test: Object recognition task, THC-induced amnesia; format: in vivo, mice; design: tissue Charles River Laboratories (France) (animals); host or cells: living mice, whole animal
Description: Object recognition was measured in a two arms L-maze (size of each arm 30 cm length×4.5 cm width) in dim light condition (50-60 lux). Animals were individually tested for three consecutive days for 9 min-session each day, corresponding to habituation, training and test sessions. On day 1 (habituation session), mice were let explore the L maze with no object. On the second day (training session), two identical objects were presented at the end of the each arm of the maze. Although no preferences for arm of object appeared (data not shown) object and arms were randomized for each mouse/condition. On the 3rd day (test session), one of the familiar objects was replaced with a novel object and the total time spent exploring each of the two objects (novel and familiar) was computed. The time spent in each arm and the time spent exploring an object (familiar or novel) were recorded. Object exploration was defined as the orientation of the nose to the object at a distance of less than 2 cm. During the test session, a discrimination index was calculated as the difference between the times spent exploring either the novel or familiar object divided by the total time exploring the two objects. […]
In this example the inventors further analyzed the ability of pregnenolone to inhibit the effects of CB1 activation. […]

T1 sequence (P47746 whole entry): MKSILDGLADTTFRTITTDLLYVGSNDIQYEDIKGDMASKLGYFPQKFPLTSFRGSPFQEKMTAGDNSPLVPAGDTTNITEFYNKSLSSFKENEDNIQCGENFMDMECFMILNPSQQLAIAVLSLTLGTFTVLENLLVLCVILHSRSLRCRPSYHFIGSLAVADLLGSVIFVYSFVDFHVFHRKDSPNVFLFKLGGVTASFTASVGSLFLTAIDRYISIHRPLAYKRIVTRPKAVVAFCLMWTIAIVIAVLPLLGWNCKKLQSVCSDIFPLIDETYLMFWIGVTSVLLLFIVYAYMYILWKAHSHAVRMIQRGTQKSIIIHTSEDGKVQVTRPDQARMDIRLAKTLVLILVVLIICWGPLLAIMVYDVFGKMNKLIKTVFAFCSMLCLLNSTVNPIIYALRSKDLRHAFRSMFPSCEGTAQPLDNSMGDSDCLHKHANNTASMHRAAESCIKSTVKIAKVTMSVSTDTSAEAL
Chain of CB1 receptor (Rattus norvegicus, UniProt P20272) (P20272 whole entry): as the sequence (P47746 whole entry) above, with D95E counted along it

## CC(=O)[C@H]1CC[C@H]2[C@@H]3CC=C4C[C@@H](O)CC[C@]4(C)[C@H]3CC[C@]12C [Pregnenolone, 5-Pregnen-3β-ol-20-one]
[1]
  production of allopregnanolone and epiallopregnanolone in nucleus accumbens: allopregnanolone and epiallopregnanolone increased
NMDA receptors; slices pre-treated with 100 nM
  inward current induced by NMDA 25 μM: 107±9.6 pA
NMDA receptors; slices pre-treated with 1 μM
  inward current induced by NMDA 25 μM: 108.9±12.5 pA
[2]
  brain concentrations of downstream metabolites (epiallopregnanolone, allopregnanolone): did not modify the concentrations of downstream metabolites
  brain levels of pregnenolone: increased brain levels of pregnenolone
CB1 receptor [3]
  inhibition of EPSC amplitude by THC: 15.1±1.8 % of inhibition
CB1 receptor [4]; food-deprived (food-restricted) mice, no THC
  first statistically significant dose for decrease of food intake: 6 mg/kg
CB1 receptor [4]; no THC
  effect on food intake in 24 h-food deprived mice: dose-dependently decreased food intake
CB1 receptor [4]; no THC, listed as pregnenolone
  effect on food intake in 24 h-food deprived mice: dose dependently decreased food intake
CB1 receptor [4]; pregnenolone
  effect on food intake over 24 hours in fasting/refeeding model: no significant effect was seen over 24 hours
CB1 receptor [5]; pregnenolone 2 or 4 mg/kg
  effect on motivation (break-point, progressive ratio schedule): decreased the motivation to self-administer WIN55,212
CB1 receptor [5]; pregnenolone 2 or 4 mg/kg before the session, WIN 12.5 μg/kg per injection
  effect on self-administration of WIN55,212: profoundly reduced the self-administration of WIN55,212
CB1 receptor [6]; pregnenolone 6 mg/kg
  effect on memory retention in the absence of THC: did not induce any change in memory retention
CB1 receptor [6]; pregnenolone 6 mg/kg immediately after training, THC 10 mg/kg
  effect on amnesic effect of THC: strongly blunted the amnesic effect
